Data published in publication PMC9182383, “Rational Design of Plant Hairpin-like Peptide EcAMP1: Structural–Functional Correlations to Reveal Antibacterial and Antifungal Activity” (Molecules, 2022).
Like-named read-outs stand apart in the source and are kept apart here. Positions of bridges follow the written chain, without caps; N, C: chain ends. Residues, ends and D or L forms follow the SMILES beside them.

Columns and labels:
[1] = test system: E. coli; experiment: Antibacterial microdilution assay; assay type: cell-based, Escherichia coli; conditions: CA-MHB, 37 °C 48 h; for Antibacterial activity against E. coli: concentrations up to 80 µM
[2] = test system: Bipolaris sorokiniana; conditions: 48 h
[3] = test system: P. aeruginosa; experiment: Antibacterial microdilution assay; assay type: cell-based; conditions: CA-MHB, 37 °C 48 h; for Antibacterial activity against P. aeruginosa: concentrations up to 80 µM
[4] = test system: Aspergillus niger; conditions: 48 h
[5] = test system: S. aureus
[6] = test system: C. albicans; conditions: 48 h
[7] = test system: F. graminearum
[8] = test system: filamentous fungi and oomycetes; conditions: cited from earlier work
[9] = test system: Alternaria alternata; conditions: 48 h
[10] = test system: Fusarium oxysporum; conditions: 48 h
[11] = test system: F. solani; conditions: 48 h
[12] = Table S1, microdilution, YPDB, OD600, growth control +, negative control -
[13] = read-out: Antifungal activity IC50, F. graminearum, Table 1, native vs truncated forms, potato–dextrose broth, 10^4–10^5 conidia per mL, 25 °C 48 h, 50% inhibition of spore germination, light microscopy, three replicates

Molecule	Antibacterial activity against E. coli [1]	IC50 [2] [µM]	Antibacterial activity against P. aeruginosa [3]	IC50 [4] [µM]	Growth of C. albicans at 1.25 µM peptide [6, 12]	IC50 [7, 13] [µM]	IC50 [9] [µM]	IC50 [10] [µM]	IC50 [11] [µM]	IC50 ([7]; 48 h) [µM]	other results
CSCC[C@@H]1NC(=O)[C@@H]2CSSC[C@H](NC(=O)[C@H](CCC(=O)O)NC(=O)[C@H](CCC(N)=O)NC(=O)[C@H](C(C)C)NC(=O)[C@H](CCCNC(=N)N)NC(=O)[C@H](Cc3c[nH]c4ccccc34)NC(=O)[C@@H]3CCCN3C(=O)[C@H](CCC(=O)O)NC(=O)[C@H](CC(=O)O)NC(=O)[C@H](CCC(=O)O)NC(=O)[C@H](Cc3c[nH]cn3)NC(=O)[C@H](CCCNC(=N)N)NC(=O)[C@H](CCCNC(=N)N)NC1=O)C(=O)N[C@@H](C(C)C)C(=O)N[C@@H](CO)C(=O)N[C@@H](CCC(N)=O)C(=O)N[C@H](C(=O)N[C@@H](CCCNC(=N)N)C(=O)N[C@@H](CCCNC(=N)N)C(=O)N[C@@H](CCCNC(=N)N)C(=O)N[C@@H](CCCNC(=N)N)C(=O)NCC(=O)NCC(=O)NCC(=O)N[C@@H](CC(=O)O)C(=O)O)CSSC[C@H](NC(=O)[C@H](CO)NC(=O)CNC(=O)[C@H](CCCNC(=N)N)NC(=O)CNC(=O)[C@H](CO)NC(=O)CN)C(=O)N[C@@H](CCCNC(=N)N)C(=O)N[C@@H](CO)C(=O)N[C@@H](CCC(N)=O)C(=O)N2 [EcAMP1-WT] (H-GSGRGSCRSQCMRRHEDEPWRVQECVSQCRRRRGGGD-OH; disulfide 7-29, 11-25; N-terminus and C-terminus assumed)	inactive	25.7 ± 3.6	inactive	> 32	MIC99	6.8 ± 1	18.4 ± 2.7	–	–	–	IC50 ([5]; 48 h): 5 µM; Growth of S. aureus at 5 µM peptide ([5]; Table S2, 5 µM, microdilution, CA-MHB, 37 °C 48 h, OD600, growth control +, negative control -): MIC50; Growth of S. aureus at 10 µM peptide ([5]; Table S2, 10 µM, microdilution, CA-MHB, 37 °C 48 h, OD600, growth control +, negative control -): MIC95; Growth of S. aureus at 20 µM peptide ([5]; Table S2, 20 µM, microdilution, CA-MHB, 37 °C 48 h, OD600, growth control +, negative control -): MIC99; IC50 [6]: 0.625 µM; Growth of C. albicans at 0.625 µM peptide ([6]; Table S1, 0.625 µM, microdilution, YPDB, OD600, growth control +, negative control -): MIC50; MIC99, almost complete suppression of C. albicans ([6]; microdilution, YPDB, range 0.625–80 µM, OD600): 1.25 µM; Number of microbes for which inhibition activity was registered [8]: 11; IC50 ([8]; read-out: IC50 against filamentous fungi and oomycetes): 4.5 to 18.2 µM
CSCC[C@@H]1NC(=O)[C@@H]2CSSC[C@H](NC(=O)[C@H](CCC(=O)O)NC(=O)[C@H](CCC(N)=O)NC(=O)[C@H](C(C)C)NC(=O)[C@H](CCCNC(=N)N)NC(=O)[C@H](Cc3c[nH]c4ccccc34)NC(=O)[C@@H]3CCCN3C(=O)[C@H](CCC(=O)O)NC(=O)[C@H](CC(=O)O)NC(=O)[C@H](CCC(=O)O)NC(=O)[C@H](Cc3c[nH]cn3)NC(=O)[C@H](CCCNC(=N)N)NC(=O)[C@H](CCCNC(=N)N)NC1=O)C(=O)N[C@@H](C(C)C)C(=O)N[C@@H](CO)C(=O)N[C@@H](CCC(N)=O)C(=O)N[C@H](C(=O)O)CSSC[C@H](N)C(=O)N[C@@H](CCCNC(=N)N)C(=O)N[C@@H](CO)C(=O)N[C@@H](CCC(N)=O)C(=O)N2 [EcAMP1-X1] (H-CRSQCMRRHEDEPWRVQECVSQC-OH; disulfide 1-23, 5-19 (inferred); N-terminus assumed)	absolutely inactive	> 32	absolutely inactive	> 32	–	9 ± 1.4	21.1 ± 2.4	15.4 ± 1.1	6.9 ± 0.7	–	Antibacterial activity against S. aureus ([5]; microdilution, CA-MHB, 37 °C 48 h, concentrations up to 80 µM): absolutely inactive; Activity against C. albicans ([6]; microdilution, YPDB, concentrations up to 80 µM): absolutely inactive
CSCC[C@@H]1NC(=O)[C@@H](N)CSSC[C@@H](C(=O)O)NC(=O)[C@H](CCC(=O)O)NC(=O)[C@H](CCC(N)=O)NC(=O)[C@H](C(C)C)NC(=O)[C@H](CCCNC(=N)N)NC(=O)[C@H](Cc2c[nH]c3ccccc23)NC(=O)[C@@H]2CCCN2C(=O)[C@H](CCC(=O)O)NC(=O)[C@H](CC(=O)O)NC(=O)[C@H](CCC(=O)O)NC(=O)[C@H](Cc2c[nH]cn2)NC(=O)[C@H](CCCNC(=N)N)NC(=O)[C@H](CCCNC(=N)N)NC1=O [EcAMP1-X2] (H-CMRRHEDEPWRVQEC-OH; disulfide 1-15)	–	> 32	–	> 32	–	18.1 ± 2.1	> 32	23.2 ± 2.6	11 ± 1.9	–	–
CSCC[C@@H]1NC(=O)[C@@H]2CSSC[C@H](NC(=O)[C@H](CCC(=O)O)NC(=O)[C@H](CCC(N)=O)NC(=O)[C@H](C(C)C)NC(=O)[C@H](CCCNC(=N)N)NC(=O)[C@H](C)NC(=O)[C@@H]3CCCN3C(=O)[C@H](CCC(=O)O)NC(=O)[C@H](CC(=O)O)NC(=O)[C@H](CCC(=O)O)NC(=O)[C@H](Cc3c[nH]cn3)NC(=O)[C@H](CCCNC(=N)N)NC(=O)[C@H](CCCNC(=N)N)NC1=O)C(=O)N[C@@H](C(C)C)C(=O)N[C@@H](CO)C(=O)N[C@@H](CCC(N)=O)C(=O)N[C@H](C(=O)N[C@@H](CCCNC(=N)N)C(=O)N[C@@H](CCCNC(=N)N)C(=O)N[C@@H](CCCNC(=N)N)C(=O)N[C@@H](CCCNC(=N)N)C(=O)NCC(=O)NCC(=O)NCC(=O)N[C@@H](CC(=O)O)C(=O)O)CSSC[C@H](NC(=O)[C@H](CO)NC(=O)CNC(=O)[C@H](CCCNC(=N)N)NC(=O)CNC(=O)[C@H](CO)NC(=O)CN)C(=O)N[C@@H](CCCNC(=N)N)C(=O)N[C@@H](CO)C(=O)N[C@@H](CCC(N)=O)C(=O)N2 [EcAMP1-X3] (H-GSGRGSCRSQCMRRHEDEPARVQECVSQCRRRRGGGD-OH; disulfide 7-29, 11-25; N-terminus and C-terminus assumed)	–	–	–	–	–	–	–	15 ± 2.1	8.6 ± 1.5	9.9 ± 1.9	–
CSCC[C@@H]1NC(=O)[C@@H]2CSSC[C@H](NC(=O)[C@H](CCC(=O)O)NC(=O)[C@H](CCC(N)=O)NC(=O)[C@H](C(C)C)NC(=O)[C@H](CCCNC(=N)N)NC(=O)[C@H](Cc3c[nH]c4ccccc34)NC(=O)[C@@H]3CCCN3C(=O)[C@H](CCC(=O)O)NC(=O)[C@H](CC(=O)O)NC(=O)[C@H](CCC(=O)O)NC(=O)[C@H](Cc3c[nH]cn3)NC(=O)[C@H](CCCNC(=N)N)NC(=O)[C@H](CCCNC(=N)N)NC1=O)C(=O)N[C@@H](C(C)C)C(=O)N[C@@H](CO)C(=O)N[C@@H](CCC(N)=O)C(=O)N[C@H](C(=O)N[C@@H](CCCNC(=N)N)C(=O)N[C@@H](CCCNC(=N)N)C(=O)O)CSSC[C@H](NC(=O)[C@H](CO)NC(=O)CNC(=O)[C@H](CCCNC(=N)N)NC(=O)CNC(=O)[C@H](CO)NC(=O)CN)C(=O)N[C@@H](CCCNC(=N)N)C(=O)N[C@@H](CO)C(=O)N[C@@H](CCC(N)=O)C(=O)N2 [EcAMP1-X4] (H-GSGRGSCRSQCMRRHEDEPWRVQECVSQCRR-OH; disulfide 7-29, 11-25; N-terminus and C-terminus assumed)	–	–	–	–	–	–	–	15.8 ± 1.6	7.8 ± 0.7	8.5 ± 1.2	–
LL37: linear α-helical antimicrobial peptide cathelicidin, positive control (LLGDFFRKSKEKIGKEFKRIVQRIKDFLRNLVPRTES; Antibacterial peptide LL-37; UniProt P49913 134-170, looked up) [reference compound]	–	–	–	–	MIC99	–	–	–	–	–	Growth of E. coli at 1.25 µM peptide ([1]; Table S3, 1.25 µM, OD600, growth control +, negative control -): MIC99; Growth of P. aeruginosa at 1.25 µM peptide ([3]; Table S4, 1.25 µM, OD600, growth control +, negative control -): MIC99; Growth of S. aureus at 0.625 µM peptide ([5]; Table S2, 0.625 µM, microdilution, CA-MHB, 37 °C 48 h, OD600, growth control +, negative control -): MIC50; Growth of S. aureus at 1.25 µM peptide ([5]; Table S2, 1.25 µM, microdilution, CA-MHB, 37 °C 48 h, OD600, growth control +, negative control -): MIC99
